The assay is described as follows: growth inhibition of yeast carrying parasite Hsp90, dose response, anti-malarial Hsp90 inhibitor project, ATP luminescence, 48 h, cherry-picked samples (AID 540268).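 For activity change, negative = inhibition: 0% = neutral control wells and -100% = positive control wells.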 The settings on record: yeast expressing the parasite Hsp90, ATP luminescence.

This is an account of results in PubChem BioAssay AID540268 (Broad Institute, 2011).

Usually AC50 stands for the midpoint of the concentration-response curve, whichever way the signal moves.

Calls of active or inactive are those of the source. The rule behind the calls is not given here.

With `COc1cc(OC)cc(N2C(=O)CC(N3CCC(C(=O)N4CCCCC4)CC3)C2=O)c1` (stereo unspecified), the AC50 is 8.21 µM.

`CCOC(=O)N=Nc1c2ccccc2c2nc3no[nH]c3nc12`: the AC50 is 0.769 µM.

In the case of `O=C1Nc2ccc(Br)cc2/C1=C/C(=O)c1ccc2c(c1)OCO2`, the AC50 is 2.63 µM.

Regarding `COc1ccccc1OCCNC(=O)c1ccc(Br)cc1`, the AC50 is less than 0.195 µM.

Consider `Cn1c(O)c(C(=Nc2ccc(F)cc2)c2ccccc2Cl)c(=O)n(C)c1=O`, for which the AC50 is 2.28 µM.

In the case of `COc1ccc2oc(=O)c(-c3csc(Nc4cccc(O)c4)n3)cc2c1`, the AC50 was 7.93 µM.

Turning to `O=C1c2cc(F)ccc2-n2c1nc1ccccc1c2=O`, the half-maximal activity concentration (AC50) was 2.96 µM.

Consider `CC(C)C1Nc2c(O)cc(Cl)c([N+](=O)[O-])c2C2C=CCC21` (stereo unspecified), for which the AC50 is 6.63 µM.

`CC(C)N1CCN(c2ccc(OC[C@H]3CO[C@](Cn4cncn4)(c4ccc(Cl)cc4Cl)O3)cc2)CC1`: the AC50 was 1.5 µM.

On to `Cc1nn(-c2nc3ccccc3[nH]2)c(=O)c2ccccc12`, for which the AC50 is 1.84 µM.

`CCOC(=O)c1ccc(N2C(=O)CC(N3CCC(C(=O)OCC)CC3)C2=O)cc1` (stereo unspecified): the AC50 is less than 0.195 µM.

In the case of `COc1cccc(/C=N/Nc2ncnc3scc(-c4ccccc4)c23)c1O`, the AC50 was 15.3 µM.

`CCC(C)(C)c1ccc(OCCCC[n+]2cccc(C)c2C)c(C(C)(C)CC)c1`: the concentration at half-maximal activity (AC50) is 4.06 µM.

Turning to `O=C(CCc1ccccc1)NC(c1cccs1)c1cc(Cl)c2cccnc2c1O` (stereo unspecified), the AC50 is 15.5 µM.

Turning to `COc1ccc(-c2nc(-c3ccccn3)no2)cc1`, the AC50 was 16.2 µM.

For `COC(=O)C1=C(C(=O)OC)C2OC1c1cc3ccccc3cc12`, the AC50 was 1.92 µM.

In the case of `COc1ccc2c(c1)OC[C@H]1[C@H]2N2C(=O)c3cc(Cl)ccc3NC(=O)[C@@]2(C)[C@H]1c1ccccc1`, the AC50 was 1.12 µM.

In the case of `CCCc1cc(NCc2ccccn2)n2nc(C)c(-c3ccccc3)c2n1`, the half-maximal activity concentration (AC50) is 1.29 µM.

As for `Oc1c(Br)cc(Br)cc1C=Nc1cccnc1`, the concentration at half-maximal activity (AC50) is 5.8 µM.

Turning to `Cc1sc2ncnc(N/N=C/c3ccccc3O)c2c1C`, the AC50 was 4.4 µM.

Turning to `O=C(NNc1nc2ccc(Cl)cc2s1)c1cc(-c2cccs2)nc2ccccc12`, the AC50 was 1.49 µM.

In the case of `O=C(O)c1ccccc1NC(c1ccccc1)c1ccc2cccnc2c1O` (stereo unspecified), the half-maximal activity concentration (AC50) is 4.87 µM.

For the compound `CN(C)/C=C/C(=O)c1ccc(N2CCN(c3ncc(C(F)(F)F)cc3Cl)CC2)cc1`, the AC50 is 4.16 µM.

For `CCc1ccc(S(=O)(=O)N(C(=O)c2ccncc2)c2ccc(OC(=O)c3ccncc3)cc2)cc1`, the half-maximal activity concentration (AC50) is 1.28 µM.

For `CC(=NNC(=S)N1CCC1)c1ccccn1`, the AC50 was 1.72 µM.

On to `COc1ccc(C2=CC3=C(Br)C(=O)C(C)(OC(=O)C4CCCC4)C(=O)C3=CO2)cc1` (stereo unspecified), for which the AC50 is 4.4 µM.

For `CCOC(=O)c1ccc(N2C(=O)C=CC2=O)cc1`, the AC50 is less than 0.195 µM.

Turning to `Oc1c(Br)cc(Br)c(/C=N/n2c(-c3ccccc3)n[nH]c2=S)c1Br`, the AC50 is 10.4 µM.

Turning to `Oc1ccccc1-c1nc(NC2CCCC2)c2ccccc2n1`, the AC50 is 4.26 µM.

Take `O=C(O)c1cccc2c1Cc1cc(Cl)ccc1-2`: the AC50 was 1.13 µM.

With `CCCCCCCCCCCCCCCC[n+]1cccc2ccccc21`, the AC50 is 3.05 µM.

With `CSc1nc2cc(Oc3cccc(Cl)c3Cl)c(Cl)cc2[nH]1`, the AC50 was 6.41 µM.

As for `Cc1ccc(-n2nnnc2C(Cl)c2nnnn2-c2ccc(C)cc2)cc1`, the AC50 is 0.903 µM.

Turning to `O=C(Nc1nnc(-c2ccc(F)cc2)o1)c1cc(Cl)sc1Cl`, the half-maximal activity concentration (AC50) was 2.43 µM.

With `CCCCCCCCCCCCCCCCn1cc[n+](C)c1`, the AC50 was 2.89 µM.

With `COc1ccc(/C=C2/CCC(CN3CCOCC3)C2=O)cc1` (stereo unspecified), the AC50 was 0.751 µM.

Regarding `COc1ccc(N2CCN(c3c(S(=O)(=O)c4ccccc4)cnc4ccc(OC)cc34)CC2)cc1`, the AC50 is 3.9 µM.

For `COc1ccc(-c2nnc3n(CCc4ccccc4)c(=O)c4ccccc4n23)c(OC)c1`, the AC50 was 8.97 µM.

Turning to `O=C(Nc1nc(-c2ccccn2)cs1)c1cc2ccccc2o1`, the AC50 is 4.24 µM.

As for `Cc1cc(N2CCN(C(=O)c3ccco3)CC2)n2nc(C)c(-c3ccccc3)c2n1`, the concentration at half-maximal activity (AC50) is 8.36 µM.

Take `Cc1ccc(-n2nnnc2C(Cl)(Cl)c2nnnn2-c2ccc(C)cc2)cc1`: the AC50 was 1.12 µM.

As to `Cc1ccc(N=c2ssnc2Cl)cc1`, the AC50 was 3.28 µM.

Turning to `CN1CCN(C(=O)c2cc(COc3c(F)cccc3F)on2)CC1c1ccccc1` (stereo unspecified), the AC50 is 0.43 µM.

For `Cc1ccc2[nH]c(C)c(/C=N/Nc3nc4ccccc4s3)c2c1`, the AC50 is 2.63 µM.

With `O=S(=O)(/C=C/c1ccccc1)NC1CCCCCC1`, the AC50 is 4.16 µM.

With `COc1ccc(S(=O)(=O)NC2CC3CCC2C3)cc1Cl` (stereo unspecified), the half-maximal activity concentration (AC50) was 1.56 µM.

Regarding `CC(=O)C1=C(c2ccc(Br)cc2)C(=O)c2ccccc2C1=O`, the AC50 is 7.82 µM.

Take `CCCCCCCCCCCCCCCC[N+](C)(C)CCN(Cc1ccc(OC)cc1)c1ncccn1`: the AC50 is 4.14 µM.

In the case of `CC1CCN(C2CC(=O)N(c3ccc(Br)cc3Br)C2=O)CC1` (stereo unspecified), the AC50 is 0.774 µM.

Regarding `COc1cc2c(cc1OC)C(=O)N1[C@H]3c4ccccc4OC[C@@H]3[C@H](c3ccccc3)[C@]1(C)C(=O)N2`, the half-maximal activity concentration (AC50) was 8.37 µM.

In the case of `Cc1ccc(O)c(-c2cc(-c3cccc(F)c3)n[nH]2)c1`, the half-maximal activity concentration (AC50) is 17.2 µM.

As for `N#C/C(=C/c1ccc(O)cc1)C(=O)NCc1ccc(Cl)cc1`, for the setting “at 26 µM (top of the series)”, the activity change, negative = inhibition was 10.6% (inactive).

As for `COc1ccc(Cl)cc1C(Nc1cccnc1)c1ccc2cccnc2c1O` (stereo unspecified), the AC50 is 1.35 µM.

Turning to `Cc1cc(-c2cc(-c3ccc(Cl)cc3)nc(N)c2C#N)co1`, the AC50 was 5.34 µM.

Take `O=C(O)c1cccc(NN=C2c3ccccc3-c3ccccc32)c1`: the AC50 was 5.71 µM.

With `CCOC(=O)/C=C/C(=O)Nc1cccc([N+](=O)[O-])c1`, the AC50 was 3.5 µM.

For the compound `CCCCCCc1cc2cc(S(=O)(=O)c3ccc(Cl)cc3)c(=O)oc2cc1O`, the half-maximal activity concentration (AC50) was 0.745 µM.

As to `O=C1c2ccccc2NC(c2ccc(-c3ccc(Br)cc3)o2)N1O` (stereo unspecified), the AC50 is 7.96 µM.

As to `Cc1cc(/C=C2\SC(=S)NC2=O)c(C)n1-c1cccc(O)c1`, the AC50 was 8.7 µM.

On to `CCOCCCNC1=C(Cl)C(=O)c2ccccc2C1=O`, for which the AC50 was 4.93 µM.

As for `Cc1ccc(-c2nc3cccnc3s2)cc1NS(=O)(=O)c1ccc2c(c1)OCCO2`, the AC50 was 4.12 µM.

In the case of `CC(=O)N1CCN(c2ccc(OC[C@H]3CO[C@](Cn4ccnc4)(c4ccc(Cl)cc4Cl)O3)cc2)CC1`, the AC50 was 1.29 µM.

For the compound `Cc1ccccc1CS(=O)(=O)c1ncc(Cl)c(C(=O)Nc2ccc(F)cc2)n1`, the AC50 is 4.06 µM.

Take `COc1ccc(C2=CC3=C(Br)C(=O)C(C)(O)C(=O)C3=CO2)cc1` (stereo unspecified): the half-maximal activity concentration (AC50) was 1.73 µM.

`CCCC(=O)NC(c1ccc(OC)cc1)c1ccc2cccnc2c1O` (stereo unspecified): the AC50 is 6.15 µM.

Consider `CC(C)N=c1scc(-c2cccs2)n1/N=C/c1ccc(O)c(O)c1O`, for which the AC50 was 7.43 µM.

With `O=C(c1ccccc1)c1ccccc1N1C(=O)C=CC1=O`, the AC50 is 1.71 µM.

Turning to `O=C(C#Cc1ccccc1)c1cccc([N+](=O)[O-])c1`, the AC50 is 0.291 µM.

On to `O=C1C=CC2(O[C@H](c3ccccc3)[C@@H](c3ccccc3)O2)[C@H](Sc2ccccc2O)C1`, for which the AC50 is 3.46 µM.

Consider `O=[N+]([O-])c1ccc(O)c(/C=N/Nc2ccccn2)c1`, for which the AC50 is 3.31 µM.

In the case of `O=C1CC(N2CCCN(C3CC(=O)N(c4ccc(F)cc4)C3=O)CC2)C(=O)N1c1ccc(F)cc1` (stereo unspecified), the AC50 is 3.49 µM.
